What was measured:
B. subtilis 168 [1] = experiment: fitness (endpoint OD595 vs no drug) (fraction); higher = more growth
Summary of the method: (§1)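 Bacterial growth was followed in 384-well plates seeded at OD595 0.01, with 30 µl per well, or 55 µl for S. pneumoniae, in TSB, LB Lennox or CY at 37 °C. OD595 was read every 30 min for 14 h, and each reading had the first reading subtracted as background. Fitness is the background-corrected optical density at entry into stationary phase divided by the robust mean of the no-drug control wells. This ratio is capped at 1.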

S. aureus DSM 20231 [2] = experiment: as above
Summary of the method: as §1

S. pneumoniae D39V [3] = experiment: as above
Summary of the method: as §1

S. aureus Newman [4] = experiment: as above
Summary of the method: as §1

B. subtilis 168 [5] = experiment: Bliss interaction score (quartile over a dose matrix) (fitness difference); higher = more antagonism (negative = synergy)
Summary of the method: (§2)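 The Bliss score takes observed fitness and subtracts the expected fitness, calculated as a product of single-drug fitness values. Those single-drug values were inferred from the combination data. Fitness is OD595 at entry into stationary phase divided by the plate's robust no-drug mean, capped at 1, and the score is summarised by quartiles across technical, biological and donor/recipient replicates.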

S. aureus DSM 20231 [6] = experiment: as above
Summary of the method: as §2

S. pneumoniae D39V [7] = experiment: as above
Summary of the method: as §2

S. aureus Newman [8] = experiment: as above
Summary of the method: as §2
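Wherever Bliss interaction score (quartile over a dose matrix) is given: first quartile when negative (synergy) and third quartile when positive (antagonism).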

COc1cccc2c1C(=O)c1c(O)c3c(c(O)c1C2=O)C[C@@](O)(C(=O)CO)C[C@@H]3O[C@H]1C[C@H](N)[C@H](O)[C@H](C)O1 [Doxorubicin] + C[n+]1ccc(-c2cc[n+](C)cc2)cc1 [Paraquat]
fitness
Conditions | first compound 0.25 µg/mL | first compound 0.5 µg/mL | first compound 0.625 µg/mL | first compound 1 µg/mL | first compound 1.25 µg/mL | first compound 2.5 µg/mL
B. subtilis 168 [1], partner 1.25 µg/mL | – | – | ≥ 1 | – | 0.892 | 0.686
B. subtilis 168 [1], partner 2.5 µg/mL | – | – | 0.924 | – | 0.861 | 0.656
B. subtilis 168 [1], partner 5 µg/mL | – | – | 0.862 | – | 0.876 | 0.595
S. aureus DSM 20231 [2], partner 1.25 µg/mL | – | – | 0.858 | – | 0.882 | 0.782
S. aureus DSM 20231 [2], partner 2.5 µg/mL | – | – | 0.828 | – | 0.835 | 0.761
S. aureus DSM 20231 [2], partner 5 µg/mL | – | – | 0.823 | – | 0.8 | 0.744
S. aureus Newman [4], partner 1.25 µg/mL | – | – | 0.712 | – | 0.742 | 0.732
S. aureus Newman [4], partner 2.5 µg/mL | – | – | 0.715 | – | 0.792 | 0.759
S. aureus Newman [4], partner 5 µg/mL | – | – | 0.744 | – | 0.743 | 0.761
S. pneumoniae D39V [3], partner 1.5 µg/mL | 0.98 | 0.992 | – | 0.9 | – | –
S. pneumoniae D39V [3], partner 3 µg/mL | 0.936 | 0.979 | – | 0.886 | – | –
S. pneumoniae D39V [3], partner 6 µg/mL | 0.916 | 0.946 | – | 0.872 | – | –

Conditions | Bliss interaction score
B. subtilis 168 [5] | 0.105
S. aureus DSM 20231 [6] | -0.0686
S. aureus Newman [8] | -0.052
S. pneumoniae D39V [7] | 0.0503

C[C@@H]1O[C@@H]1P(=O)(O)O [Fosfomycin] + Cc1cc(NS(=O)(=O)c2ccc(N)cc2)no1 [Sulfamethoxazol]
fitness, one replicate
Conditions | first compound 0.781 µg/mL | first compound 1.562 µg/mL | first compound 3.124 µg/mL | first compound 6.248 µg/mL
B. subtilis 168 [1], partner 0.5 µg/mL | – | 0.794 | 0.686 | 0.592
S. aureus Newman [4], partner 8 µg/mL | 0.782 | 0.733 | 0.519 | –

fitness
Conditions | partner 1 µg/mL | partner 2 µg/mL | partner 4 µg/mL
B. subtilis 168 [1], first compound 1.562 µg/mL | 0.652 | 0.673 | 0.679
B. subtilis 168 [1], first compound 3.124 µg/mL | 0.548 | 0.557 | 0.516
B. subtilis 168 [1], first compound 6.248 µg/mL | 0.489 | 0.378 | 0.379
S. aureus DSM 20231 [2], first compound 0.781 µg/mL | 0.709 | 0.696 | 0.678
S. aureus DSM 20231 [2], first compound 1.562 µg/mL | 0.547 | 0.581 | 0.581
S. aureus DSM 20231 [2], first compound 3.124 µg/mL | 0.49 | 0.503 | 0.509
S. aureus Newman [4], first compound 0.781 µg/mL | 0.627 | 0.705 | 0.71
S. aureus Newman [4], first compound 1.562 µg/mL | 0.513 | 0.572 | 0.496
S. aureus Newman [4], first compound 3.124 µg/mL | 0.211 | – | 0.141
S. pneumoniae D39V [3], first compound 1.25 µg/mL | 0.957 | 0.935 | 0.955
S. pneumoniae D39V [3], first compound 2.5 µg/mL | 0.918 | 0.925 | 0.943
S. pneumoniae D39V [3], first compound 5 µg/mL | 0.757 | 0.756 | 0.78

Conditions | Bliss interaction score
B. subtilis 168 [5] | -0.0756
S. aureus DSM 20231 [6] | -0.0688
S. aureus Newman [8] | 0.0933
S. pneumoniae D39V [7] | -0.0416

COc1cccc2c1C(=O)c1c(O)c3c(c(O)c1C2=O)C[C@@](O)(C(=O)CO)C[C@@H]3O[C@H]1C[C@H](N)[C@H](O)[C@H](C)O1 [Doxorubicin] + CN1C2=CC=CC=C2N=C3C1=CC=CC3=O [Pyocyanin]
Conditions | fitness
B. subtilis 168 [1], first compound 0.625 µg/mL, partner 1.25 µg/mL | 0.888
B. subtilis 168 [1], first compound 0.625 µg/mL, partner 2.5 µg/mL | 0.878
B. subtilis 168 [1], first compound 0.625 µg/mL, partner 5 µg/mL | 0.684
B. subtilis 168 [1], first compound 1.25 µg/mL, partner 1.25 µg/mL | 0.853
B. subtilis 168 [1], first compound 1.25 µg/mL, partner 2.5 µg/mL | 0.841
B. subtilis 168 [1], first compound 1.25 µg/mL, partner 5 µg/mL | 0.625
B. subtilis 168 [1], first compound 2.5 µg/mL, partner 1.25 µg/mL | 0.631
B. subtilis 168 [1], first compound 2.5 µg/mL, partner 2.5 µg/mL | 0.54
S. aureus DSM 20231 [2], first compound 0.625 µg/mL, partner 1.25 µg/mL | 0.863
S. aureus DSM 20231 [2], first compound 0.625 µg/mL, partner 2.5 µg/mL | 0.827
S. aureus DSM 20231 [2], first compound 0.625 µg/mL, partner 5 µg/mL | 0.578
S. aureus DSM 20231 [2], first compound 1.25 µg/mL, partner 1.25 µg/mL | 0.857
S. aureus DSM 20231 [2], first compound 1.25 µg/mL, partner 2.5 µg/mL | 0.865
S. aureus DSM 20231 [2], first compound 1.25 µg/mL, partner 5 µg/mL | 0.641
S. aureus DSM 20231 [2], first compound 2.5 µg/mL, partner 1.25 µg/mL | 0.744
S. aureus DSM 20231 [2], first compound 2.5 µg/mL, partner 2.5 µg/mL | 0.699
S. aureus DSM 20231 [2], first compound 2.5 µg/mL, partner 5 µg/mL | 0.487
S. aureus Newman [4], first compound 0.625 µg/mL, partner 1.25 µg/mL | 0.733
S. aureus Newman [4], first compound 0.625 µg/mL, partner 2.5 µg/mL | 0.687
S. aureus Newman [4], first compound 0.625 µg/mL, partner 5 µg/mL | 0.438
S. aureus Newman [4], first compound 1.25 µg/mL, partner 1.25 µg/mL | 0.716
S. aureus Newman [4], first compound 1.25 µg/mL, partner 2.5 µg/mL | 0.639
S. aureus Newman [4], first compound 2.5 µg/mL, partner 1.25 µg/mL | 0.674
S. aureus Newman [4], first compound 2.5 µg/mL, partner 2.5 µg/mL | 0.584
S. pneumoniae D39V [3], first compound 0.25 µg/mL, partner 0.325 µg/mL | 0.986
S. pneumoniae D39V [3], first compound 0.25 µg/mL, partner 0.65 µg/mL | 0.92
S. pneumoniae D39V [3], first compound 0.25 µg/mL, partner 1.3 µg/mL | 0.766
S. pneumoniae D39V [3], first compound 0.5 µg/mL, partner 0.325 µg/mL | ≥ 1
S. pneumoniae D39V [3], first compound 0.5 µg/mL, partner 0.65 µg/mL | 0.938
S. pneumoniae D39V [3], first compound 0.5 µg/mL, partner 1.3 µg/mL | 0.773
S. pneumoniae D39V [3], first compound 1 µg/mL, partner 0.325 µg/mL | 0.942
S. pneumoniae D39V [3], first compound 1 µg/mL, partner 0.65 µg/mL | 0.868
S. pneumoniae D39V [3], first compound 1 µg/mL, partner 1.3 µg/mL | 0.729

Conditions | Bliss interaction score
B. subtilis 168 [5] | 0.0456
S. aureus DSM 20231 [6] | -0.0672
S. aureus Newman [8] | -0.0556
S. pneumoniae D39V [7] | 0.0322
